Reference: PubChem BioAssay AID1963446 (Molecular Pharmacology Branch, DTP, NCI, 2024)

Test system: 993429-296-R-J1-PDC complex spheroid growth, percent test/control
Test: Anticancer human tumor 993429-296-R-J1-PDC patient-derived uterine sarcoma cell line growth inhibition [Asc]
Settings: for IC50: curve of first compound; for viability, T/C: stronger effect = lower value
Summary of the method: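 Tumor cells were grown as complex spheroids with human endothelial cells (HUVEC) and human mesenchymal stem cells as stroma. Agents were tested alone and in combination, in half-log steps down from the clinical Cmax, or from 10 microM where Cmax was unknown.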

[1] = second compound 0.01 µM, first compound 0.00316 µM
[2] = second compound 0.01 µM, first compound 0.01 µM
[3] = second compound 0.01 µM, first compound 0.0316 µM
[4] = second compound 0.01 µM, first compound 0.1 µM
[5] = second compound 0.0316 µM, first compound 0.00316 µM
[6] = second compound 0.0316 µM, first compound 0.01 µM
[7] = second compound 0.0316 µM, first compound 0.0316 µM
[8] = second compound 0.0316 µM, first compound 0.1 µM
[9] = second compound 0.1 µM, first compound 0.00316 µM
[10] = second compound 0.1 µM, first compound 0.01 µM
[11] = second compound 0.1 µM, first compound 0.0316 µM
[12] = second compound 0.1 µM, first compound 0.1 µM
[13] = second compound 0.316 µM, first compound 0.00316 µM
[14] = second compound 0.316 µM, first compound 0.01 µM
[15] = second compound 0.316 µM, first compound 0.0316 µM
[16] = second compound 0.316 µM, first compound 0.1 µM
[17] = second compound 1 µM, first compound 0.00316 µM
[18] = second compound 1 µM, first compound 0.01 µM
[19] = second compound 1 µM, first compound 0.0316 µM
[20] = second compound 1 µM, first compound 0.1 µM
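Note: spheroids exposed to compounds for seven days.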

`COc1c(OCCCN2CCOCC2)ccc2c3n(c(=NC(=O)c4cnc(N)nc4)nc12)CCN3` + CNC(C)C(=O)NC1CN(S(=O)(=O)c2cccc(S(=O)(=O)N3CCC4CCC(C(=O)NC(c5ccccc5)c5ccccc5)N4C(=O)C(NC(=O)C(C)NC)C3)c2)CCC2CCC(C(=O)NC(c3ccccc3)c3ccccc3)N2C1=O showed an IC50 (second compound 0.01 µM) of 16.3 nM, an IC50 (second compound 0.0316 µM) of 9.29 nM and an IC50 (second compound 0.1 µM) of 12.1 nM. It also gave an IC50 (second compound 0.316 µM) of 5.34 nM, an IC50 (second compound 1 µM) of 4.09 nM and a viability, T/C [1] of 68.8%. The viability, T/C [2] was 60.1%, the viability, T/C [3] was 36.4% and the viability, T/C [4] was 12.3%. The viability, T/C (second compound 0.01 µM, first compound 0.316 µM) was 3.69%, the viability, T/C (second compound 0.01 µM, first compound 1 µM) was 1.21% and the viability, T/C [5] was 54.7%. The viability, T/C [6] was 50%, the viability, T/C [7] was 32.9% and the viability, T/C [8] was 12.4%. It also gave a viability, T/C (second compound 0.0316 µM, first compound 0.316 µM) of 4.55%, a viability, T/C (second compound 0.0316 µM, first compound 1 µM) of 1.09% and a viability, T/C [9] of 57.1%. The viability, T/C [10] was 56.9%, the viability, T/C [11] was 29.9% and the viability, T/C [12] was 12.2%. The viability, T/C (second compound 0.1 µM, first compound 0.316 µM) was 3.36%, the viability, T/C (second compound 0.1 µM, first compound 1 µM) was 1.18% and the viability, T/C [13] was 58%. For the same compound, the viability, T/C [14] was 39.8%, the viability, T/C [15] was 24.5% and the viability, T/C [16] was 8.8%. It also gave a viability, T/C (second compound 0.316 µM, first compound 0.316 µM) of 3.2%, a viability, T/C (second compound 0.316 µM, first compound 1 µM) of 1.42% and a viability, T/C [17] of 52.4%. For the same compound, the viability, T/C [18] was 41.6%, the viability, T/C [19] was 24.8% and the viability, T/C [20] was 11.3%. It also gave a viability, T/C (second compound 1 µM, first compound 0.316 µM) of 4.7% and a viability, T/C (second compound 1 µM, first compound 1 µM) of 0.9%.

For `NC1CCC(NC2CC2c2ccccc2)CC1` (stereo not given) + CNC(C)C(=O)NC1CN(S(=O)(=O)c2cccc(S(=O)(=O)N3CCC4CCC(C(=O)NC(c5ccccc5)c5ccccc5)N4C(=O)C(NC(=O)C(C)NC)C3)c2)CCC2CCC(C(=O)NC(c3ccccc3)c3ccccc3)N2C1=O, the IC50 (second compound 0.01 µM) was > 100 nM, the IC50 (second compound 0.0316 µM) was > 100 nM and the IC50 (second compound 0.1 µM) was > 100 nM. The IC50 (second compound 0.316 µM) was > 100 nM, the IC50 (second compound 1 µM) was < 0.316 nM and the viability, T/C (second compound 0.01 µM, first compound 0.000316 µM) was 63.9%. It also gave a viability, T/C (second compound 0.01 µM, first compound 0.001 µM) of 62.7%, a viability, T/C [1] of 57.3% and a viability, T/C [2] of 63.6%. The viability, T/C [3] was 57.8%, the viability, T/C [4] was 63.4% and the viability, T/C (second compound 0.0316 µM, first compound 0.000316 µM) was 53.3%. For the same compound, the viability, T/C (second compound 0.0316 µM, first compound 0.001 µM) was 56.3%, the viability, T/C [5] was 48.5% and the viability, T/C [6] was 46.5%. For the same compound, the viability, T/C [7] was 57.7%, the viability, T/C [8] was 57.9% and the viability, T/C (second compound 0.1 µM, first compound 0.000316 µM) was 53.1%. It also gave a viability, T/C (second compound 0.1 µM, first compound 0.001 µM) of 53.5%, a viability, T/C [9] of 58.6% and a viability, T/C [10] of 54.9%. For the same compound, the viability, T/C [11] was 58.3%, the viability, T/C [12] was 56% and the viability, T/C (second compound 0.316 µM, first compound 0.000316 µM) was 59.7%. The viability, T/C (second compound 0.316 µM, first compound 0.001 µM) was 51.5%, the viability, T/C [13] was 48.1% and the viability, T/C [14] was 50.2%. It also gave a viability, T/C [15] of 53.2%, a viability, T/C [16] of 49.8% and a viability, T/C (second compound 1 µM, first compound 0.000316 µM) of 45.9%. For the same compound, the viability, T/C (second compound 1 µM, first compound 0.001 µM) was 41.7%, the viability, T/C [17] was 39.7% and the viability, T/C [18] was 41.1%. The viability, T/C [19] was 47.9% and the viability, T/C [20] was 28.1%.
